From paper PMC6006285, “Specific stereochemistry of OP-1074 disrupts estrogen receptor alpha helix 12 and confers pure antiestrogenic activity” (Nature Communications, 2018)

Target: T1, glucocorticoid receptor (GR) (Homo sapiens, UniProt P04150)
T1 construct: HeLa cells were transfected as above but also with plasmids for full length wild; expressed in transfected cells; host or cells: HeLa
T1 sequence (P04150 1-777): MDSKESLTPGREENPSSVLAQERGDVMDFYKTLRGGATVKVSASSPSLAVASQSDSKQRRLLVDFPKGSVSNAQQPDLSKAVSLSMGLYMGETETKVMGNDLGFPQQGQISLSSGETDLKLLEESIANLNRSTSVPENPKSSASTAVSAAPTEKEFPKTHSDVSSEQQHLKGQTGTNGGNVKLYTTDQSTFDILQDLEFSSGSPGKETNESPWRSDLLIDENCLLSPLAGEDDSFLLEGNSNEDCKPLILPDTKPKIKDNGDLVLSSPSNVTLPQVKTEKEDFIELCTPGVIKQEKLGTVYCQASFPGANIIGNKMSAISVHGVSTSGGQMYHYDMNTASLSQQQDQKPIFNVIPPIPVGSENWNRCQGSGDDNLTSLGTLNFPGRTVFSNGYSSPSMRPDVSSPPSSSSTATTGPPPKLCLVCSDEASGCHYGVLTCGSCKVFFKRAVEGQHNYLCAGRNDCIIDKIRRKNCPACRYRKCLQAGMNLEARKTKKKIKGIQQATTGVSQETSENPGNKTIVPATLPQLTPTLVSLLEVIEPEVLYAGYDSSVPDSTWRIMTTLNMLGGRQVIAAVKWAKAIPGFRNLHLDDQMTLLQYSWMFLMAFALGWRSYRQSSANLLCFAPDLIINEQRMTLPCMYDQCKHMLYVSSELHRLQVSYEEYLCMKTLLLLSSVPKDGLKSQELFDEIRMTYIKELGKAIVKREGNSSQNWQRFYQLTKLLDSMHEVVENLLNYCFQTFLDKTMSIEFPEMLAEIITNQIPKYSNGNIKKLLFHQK
Assay: PRE3X-TATA-Luc reporter in HeLa cells transfected with GR
Type: cell-based
Details: alone or + 32 nM Dex, 22 h
Procedure: representative experiment. […]
receptor (AR, (B)), glucocorticoid receptor (GR, (C)), and the B-isoform of the progesterone receptor (PR-B, (D)). HeLa cells were transfected with the designated wild type receptor along with reporter gene PRE3X-TATA-Luc, which is promiscuously activated with known agonists specific for each receptor: R1881 for AR, dexamethasone (Dex) for GR, and medroxyprogesterone acetate (MPA) for PR-B. Each receptor was also dosed with one concentration of known antagonist for each receptor: 32 nM bicalutamide for AR, and 500 nM RU486 for GR and PR. Transfected cells were treated with the designated ligands for 22 hours and luciferase activity assayed. Shown are representative experiments, independently performed at least 3 times. Note that curves for agonists for each receptor were performed in separate experiments. Shown are means with SEM, normalized to percent of 32 nM R1881 for AR, 32 nM Dex for GR, and 0.5 µM MPA for PR-B (except with MPA alone, which was normalized to […]
either ERα or ERβ, and 85 ng ERE-3x-Luc, containing 3 copies of estrogen-response element (ERE) cloned into pGL4.23 luciferase reporter gene containing a minimal TATA promoter […]
hours (1.25% total final charcoal dextran stripped FBS). Bright Glo luciferase reagent (Promega) […]

CC1=C(c2ccc(O)cc2)[C@H](c2ccc(OCCN3CC[C@@H](C)C3)cc2)Oc2cc(O)ccc21 [OP-1074] was tested, and the “Agonist and antagonist activity on GR” value was “lacks agonist and antagonist activity”.
